Results from patent US20110294722A1, “ANTIMICROBIAL PEPTIDES” (priority 2008, published 2011).
Like-named read-outs stand apart in the source and are kept apart here. No end group written: not given here.

What was measured:
Botrytis cinerea = assay: In-vitro inhibition assay (MIC), Example 2; format: cell-based; details: visual screening
Experimental: (§1) In-vitro inhibition assays were performed in sterile flat-bottom 96-well plates (Greiner bio-one, Frickenhausen). Antimicrobial peptides were dissolved in 0.01% acetic acid containing 0.2% BSA (500 μg/ml), filter sterilized and stored at −20° C. For inhibition assays dilutions of peptides ranging from 5 to 200 μg/ml were prepared and 10 μl (antibacterial assay) or 20 μl (antifungal assay) of each concentration was loaded per well.
(§2) Spores of fungi were collected by water washes of sporulating cultures grown on 2% malt extract agar and spore concentration was determined by microscopy. The concentration of the spores was adjusted to 1.5-2×10^3 spores/ml in 2% malt extract medium and 80 μl of fungal spores were added per well. The final peptide concentrations used in the fungal inhibition assays were […]. After overnight incubation at room temperature the plate were put on a rotary shaker (300 rpm) for further two days to ensure consistantly growth. Antifungal effects of the peptides were determined by a microplate reader (Alternaria, Fusarium) at OD590 nm or by visual screening of the plates (Botrytis, Cladosporium).
(§3) The lowest peptide concentration leading to complete inhibition of bacterial growth or spore germination/mycelial growth (minimal inhibition concentration, MIC) was determined for each organism-peptide combination. For each peptide concentration two identical inhibition assays were performed.

Alternaria alternata = assay: In-vitro inhibition assay (MIC), Example 2; format: cell-based; details: OD590 nm
Experimental: as §1, §2, §3

Cladosporium herbarum = assay: In-vitro inhibition assay (MIC), Example 2; format: cell-based; details: visual screening
Experimental: as §1, §2, §3

phytopathogenic fungi = assay: Antifungal inhibition assay, summary statement; format: cell-based; details: summary of Table 1
Experimental: as §1, §2
The lowest peptide concentration leading to complete inhibition of bacterial growth or spore germination/mycelial growth (minimal inhibition concentration, MIC) was determined for each organism-peptide combination. […]

Xanthomonas vesicatoria [1] = system: Xanthomonas vesicatoria
[2] = system: Clavibacter michiganensis sub. michiganensis; details: overnight 25° C.
Pseudomonas corrugata [3] = system: Pseudomonas corrugata
[4] = system: Pseudomonas syringae pv. tomato
[5] = system: Pseudomonas syringae pv. syringae
[6] = system: Pectobacterium carotovorum sub. carotovorum
[7] = system: Clavibacter michiganensis; assay: In-vitro inhibition assay (MIC and LC), Example 3; format: cell-based; details: for MIC (>90% inhibition): 1-2 days at 25° C.; for LC (lethal concentration, 100% inhibition): at least 4 days of incubation
Experimental: as §1, with “20” for “20 μl”
(§4) Bacteria colonies from overnight agar plate cultures were resuspended into 5 ml LB-medium or HPG-medium (OD600 nm=0.08-0.1) and diluted into LB-medium/HPG-medium (1:100). 90 μl of this suspension containing about 10^5-10^6 CFU/ml of tested bacteria were added to each well resulting in final peptide concentrations of 0, 0.5, 1, 2, 5, 10, and 20 μg/ml. […] The lowest concentration, in which there is no observable growth (>90% inhibition) is referred to as minimal inhibitory concentration (MIC). […] For each peptide concentration two identical inhibition assays were performed.

Xanthomonas vesicatoria [8] = assay: In-vitro inhibition assay (MIC and LC), Example 3; format: cell-based; details: for MIC (>90% inhibition): 1-2 days at 25° C.; for LC (lethal concentration, 100% inhibition): at least 4 days of incubation
Experimental: as §1, with “20” for “20 μl”
as §4

[9] = system: Pseudomonas syringae pv. syringae; format: cell-based; details: for LC (lethal concentration, 100% inhibition): at least 4 days of incubation
Experimental: as §1, with “20” for “20 μl”
as §4

Pseudomonas corrugata [10] = format: cell-based; details: for LC (lethal concentration, 100% inhibition): at least 4 days of incubation
Experimental: as §1, with “20” for “20 μl”
as §4

[11] = system: Pseudomonas syringae pv. tomato; format: cell-based; details: for LC (lethal concentration, 100% inhibition): at least 4 days of incubation
Experimental: as §1, with “20” for “20 μl”
as §4

[12] = system: Pectobacterium carotovorum; format: cell-based; details: for LC (lethal concentration, 100% inhibition): at least 4 days of incubation
Experimental: as §1, with “20” for “20 μl”
as §4

[13] = Pseudomonas syringae pv. syringae
[14] = Pseudomonas syringae pv. tomato
[15] = Pseudomonas syringae pv. syringae, 1-2 days at 25° C.
[16] = Pseudomonas corrugata, 1-2 days at 25° C.
[17] = Pseudomonas syringae pv. tomato, 1-2 days at 25° C.
[18] = Pectobacterium carotovorum, 1-2 days at 25° C.

Substance	Minimal inhibition concentration (MIC) for complete inhibition of spore germination/mycelial growth (Botrytis cinerea)	Minimal inhibition concentration (MIC) for complete inhibition of spore germination/mycelial growth (Alternaria alternata)	Minimal inhibition concentration (MIC) for complete inhibition of spore germination/mycelial growth (Cladosporium herbarum)	MIC (>90% inhibition) [7]	LC (lethal concentration, 100% inhibition) [7]	MIC (>90% inhibition) (Xanthomonas vesicatoria [8])	LC (lethal concentration, 100% inhibition) (Xanthomonas vesicatoria [8])	LC (lethal concentration, 100% inhibition) [9, 13]	LC (lethal concentration, 100% inhibition) (Pseudomonas corrugata [10]; Pseudomonas corrugata)	MIC (>90% inhibition) [11]	LC (lethal concentration, 100% inhibition) [11, 14]	LC (lethal concentration, 100% inhibition) ([12]; Pectobacterium carotovorum)	MIC (>90% inhibition) [9, 15]	MIC (>90% inhibition) (Pseudomonas corrugata [10]; [16])	MIC (>90% inhibition) [11, 17]	MIC (>90% inhibition) [12, 18]	also measured
RKRFARFAKRAV-NH2 [Sp3]	>100 µg/mL	>100 µg/mL	40 µg/mL	–	–	–	–	–	–	–	–	–	–	–	–	–	–
SP1-D: Polypeptide SP1 (RKKRLKLLKRLV) with D-amino acids incorporated; D positions marked bold/italic in b61, not recoverable (also: D-amino acids at unstated positions)	>40 µg/mL	20 µg/mL	20 µg/mL	–	–	–	–	–	–	–	–	–	–	–	–	–	Efficacy against phytopathogenic fungi (phytopathogenic fungi): high efficacy against phytopathogenic fungi; Minimal inhibition concentration (MIC) for complete inhibition of bacterial growth (Xanthomonas vesicatoria [1]; Xanthomonas vesicatoria, overnight 25° C.): 40 µg/mL; Minimal inhibition concentration (MIC) for complete inhibition of bacterial growth [2]: 40 µg/mL; Minimal inhibition concentration (MIC) for complete inhibition of bacterial growth (Pseudomonas corrugata [3]; Pseudomonas corrugata, overnight 25° C.): 20 µg/mL; Minimal inhibition concentration (MIC) for complete inhibition of bacterial growth ([4]; Pseudomonas syringae pv. tomato, overnight 25° C.): 5 µg/mL; Minimal inhibition concentration (MIC) for complete inhibition of bacterial growth ([5]; Pseudomonas syringae pv. syringae, overnight 25° C.): 5 µg/mL; Minimal inhibition concentration (MIC) for complete inhibition of bacterial growth ([6]; Pectobacterium carotovorum sub. carotovorum, overnight 25° C.): >40 µg/mL
RKKRLKLLKRLV-NH2 [SP1]	>100 µg/mL	>100 µg/mL	10 µg/mL	5.0/5.0 μg/ml	5.0/5.0 μg/ml	0.5 µg/mL	1.0 µg/mL	0.5 µg/mL	1.0 µg/mL	10/10 μg/ml	10/10 μg/ml	>10/>10 μg/ml	–	–	–	–	Minimal inhibition concentration (MIC) for complete inhibition of bacterial growth (Xanthomonas vesicatoria [1]): 2 µg/mL; Minimal inhibition concentration (MIC) for complete inhibition of bacterial growth [2]: 1 µg/mL; MIC (>90% inhibition) [9]: 0.1 µg/mL; MIC (>90% inhibition) (Pseudomonas corrugata [10]): 0.5 µg/mL; MIC (>90% inhibition) [12]: >10/>10 μg/ml; Minimal inhibition concentration (MIC) for complete inhibition of bacterial growth (Pseudomonas corrugata [3]): 2 µg/mL; Minimal inhibition concentration (MIC) for complete inhibition of bacterial growth [4]: 1 µg/mL; Minimal inhibition concentration (MIC) for complete inhibition of bacterial growth [5]: 2 µg/mL; Minimal inhibition concentration (MIC) for complete inhibition of bacterial growth [6]: >40 µg/mL
KKKAARALKRAL-NH2 [Sp4, KKKAARALKRAL]	>100 µg/mL	>100 µg/mL	40 µg/mL	–	–	–	–	–	–	–	–	–	–	–	–	–	–
RKKRKKLLKRLL-NH2 [SP1-18]	–	–	–	5.0/5.0 μg/ml	5.0/5.0 μg/ml	5.0 µg/mL	10 µg/mL	5.0 µg/mL	0.5 µg/mL	–	0.5 µg/mL	>10/>10 μg/ml	0.1 µg/mL	0.25 µg/mL	1.0 µg/mL	>10/>10 μg/ml	–
RKKRVKLLKRLV-NH2 [SP1-2]	–	–	–	10/>10 μg/ml	10/>10 μg/ml	5.0 µg/mL	> 10 µg/mL	5.0 µg/mL	2.5 µg/mL	–	5.0/5.0 μg/ml	>10/>10 μg/ml	2.5 µg/mL	0.5 µg/mL	5.0/5.0 μg/ml	>10/>10 μg/ml	–
RKKKIKIIKKII-NH2 [SP1-9]	–	–	–	2.5 µg/mL	10 µg/mL	2.5/2.5 μg/ml	2.5/2.5 μg/ml	1.0 µg/mL	5.0/5.0 μg/ml	–	10 µg/mL	>10/>10 μg/ml	0.5 µg/mL	5.0/5.0 μg/ml	5.0 µg/mL	>10/>10 μg/ml	–
RKKKLKIIKRLI-NH2 [SP1-7]	–	–	–	2.5/2.5 μg/ml	2.5/2.5 μg/ml	1.0/1.0 μg/ml	1.0/1.0 μg/ml	0.25 µg/mL	2.5 µg/mL	10/10 μg/ml	10/10 μg/ml	>10/>10 μg/ml	0.1 µg/mL	0.5 µg/mL	–	>10/>10 μg/ml	–
RKRAARLLKRLV-NH2 [Sp2]	>100 µg/mL	>100 µg/mL	20 µg/mL	–	–	–	–	–	–	–	–	–	–	–	–	–	–
RKKKIKIIKRLI-NH2 [SP1-8]	–	–	–	5.0 µg/mL	> 10 µg/mL	2.5 µg/mL	5.0 µg/mL	0.5 µg/mL	2.5/2.5 μg/ml	10/10 μg/ml	10/10 μg/ml	>10/>10 μg/ml	0.25 µg/mL	2.5/2.5 μg/ml	–	>10/>10 μg/ml	–
RKKKFKFFKRFF-NH2 [SP1-13]	–	–	–	0.25 µg/mL	1.0 µg/mL	0.5 µg/mL	2.5 µg/mL	0.5 µg/mL	0.25 µg/mL	1.0 µg/mL	5.0 µg/mL	>10/>10 μg/ml	0.1 µg/mL	< 0.1 µg/mL	–	>10/>10 μg/ml	–
KKKKIIKRLI-NH2 [SP1-17]	–	–	–	>10/>10 μg/ml	>10/>10 μg/ml	>10/>10 μg/ml	>10/>10 μg/ml	> 10 µg/mL	> 10 µg/mL	–	1.0/1.0 μg/ml	>10/>10 μg/ml	< 0.1 µg/mL	5.0 µg/mL	1.0/1.0 μg/ml	>10/>10 μg/ml	–
